Broadly, the IC50 is the concentration that inhibits the measured activity by half. Read a low IC50 as greater potency in that assay.

The target of the assay is CDK2 (UniProt P24941). The assay can be described thus: Enzyme Assay.
Take `Cc1cc(-c2[nH]nc3c2C(=O)c2c(NC(=O)NN4CCN(C)CC4)cccc2-3)ccc1OCCN1CCN(C(C)C)CC1`: the IC50 was less than 100 nM.

In turn, `CC(C)c1nn(-c2c(Cl)cc(Cl)cc2Cl)c2nc(Cc3ccc(CN4CCCC4)n3C)[nH]c(=O)c12` displayed an IC50 of less than 100 nM.

In turn, `CC(C)N1CCN(Cc2cc(-c3[nH]nc4c3C(=O)c3c(NC(=O)NN5CCOCC5)cccc3-4)ccc2O)CC1` showed an IC50 of less than 100 nM. On to `O=C(Nc1cccc2c1C(=O)c1c(-c3ccc(CN4CCC(O)CC4)cc3)n[nH]c1-2)NN1CCOCC1`, for which the 50% inhibitory concentration (IC50) was less than 100 nM.

In turn, `CC(C)c1nn(-c2c(Cl)cccc2Cl)c2nc(Cc3ccc(C(=O)NOCCN4CCOCC4)cc3)[nH]c(=O)c12` showed an IC50 of less than 100 nM. `CN1CCN(NC(=O)Nc2cccc3c2C(=O)c2c-3n[nH]c2-c2ccc(O)cc2)CC1` showed an IC50 of less than 100 nM. `CC(C)c1nn(-c2c(Cl)cccc2Cl)c2nc(Cc3ccc(NS(=O)(=O)CCCN4CCOCC4)cc3)[nH]c(=O)c12` came in with an IC50 of less than 100 nM. With `O=C(Nc1cccc2c1C(=O)c1c(-c3ccc(OCCN4CCOCC4)c(F)c3)n[nH]c1-2)NN1CCOCC1`, the IC50 was less than 100 nM. With `CCOC(=O)CN1CCN(NC(=O)Nc2cccc3c2C(=O)c2c-3n[nH]c2-c2ccc(OCCN3CCCC3)cc2)CC1` the figure was less than 100 nM. For the molecule `CC(C)N1CCN(CCOc2ccc(-c3n[nH]c4c3C(=O)c3c(NC(=O)NN5CCOCC5)cccc3-4)cc2F)CC1`, the IC50 was less than 10 nM.

In the case of `CC(C)c1nn(-c2c(Cl)cc(Cl)cc2Cl)c2nc(Cc3ccc(NS(=O)(=O)CCCN4CCCCC4)cc3)[nH]c(=O)c12`, the IC50 is less than 100 nM.

The molecule `O=C(Nc1cccc2c1C(=O)c1c(-c3ccc(CN4CCN(c5cccc(C(F)(F)F)c5)CC4)cc3)n[nH]c1-2)NN1CCOCC1` showed an IC50 of less than 100 nM.

`CN1CCN(NC(=O)Nc2cccc3c2C(=O)c2c(-c4ccc(OCCN5CCCC5)c(F)c4)n[nH]c2-3)CC1`: the half-maximal inhibitory concentration (IC50) was less than 100 nM. Molecule `CN1CCN(NC(=O)Nc2cccc3c2C(=O)c2c-3n[nH]c2-c2ccc(OCCN3CCC[C@H]3CO)cc2)CC1` had a concentration for half-maximal inhibition (IC50) of less than 100 nM. With `COCCN1CCN(Cc2ccc(-c3[nH]nc4c3C(=O)c3c(NC(=O)NN5CCOCC5)cccc3-4)cc2)CC1` the figure was less than 10 nM; with `CN1CCN(Cc2ccc(-c3n[nH]c4c3C(=O)c3c(NC(=O)NN5CCOCC5)cccc3-4)cc2)CC1`, less than 100 nM. As for `CC(C)c1nn(-c2c(Cl)cccc2Cl)c2nc(Cc3ccc(OCCO)cc3)[nH]c(=O)c12`, the IC50 is less than 100 nM.

Molecule `CC(C)N1CCN(NC(=O)Nc2cccc3c2C(=O)c2c-3n[nH]c2-c2ccc(OCCN3CCCC3)cc2)CC1` returned an IC50 of less than 10 nM. In turn, `Cc1cc(OCCN2CCCC2)ccc1-c1[nH]nc2c1C(=O)c1c(NC(=O)NN3CCN(C)CC3)cccc1-2` gave a 50% inhibitory concentration (IC50) of less than 100 nM. Regarding `CC(C)c1nn(-c2c(Cl)cccc2Cl)c2nc(Cc3ccc(OCC(C)(C)O)cc3)[nH]c(=O)c12`, the IC50 is less than 100 nM. The molecule `O=C(Nc1cccc2c1C(=O)c1c-2n[nH]c1-c1ccc(OCCN2CCOCC2)cc1)NN1CCOCC1` gave an IC50 of less than 100 nM. In the case of `O=C(Nc1cccc2c1C(=O)c1c(-c3ccc(CN4CCCC4)cc3)n[nH]c1-2)NN1CCOCC1`, the IC50 is less than 100 nM. `Cc1cc(OCCn2cccn2)ccc1-c1[nH]nc2c1C(=O)c1c(NC(=O)NN3CCN(C)CC3)cccc1-2` came in with an IC50 of less than 100 nM. As to `O=C(Nc1cccc2c1C(=O)c1c-2n[nH]c1-c1ccc(O)c(CN2CCOCC2)c1)NN1CCOCC1`, the IC50 was less than 100 nM. For the molecule `CC(C)c1nn(-c2c(Cl)cc(Cl)cc2Cl)c2nc(Cc3ccc(NS(=O)(=O)CCCN4CCN(C(C)C)CC4)cc3)[nH]c(=O)c12`, the IC50 is less than 100 nM.

`CC(C)c1nn(-c2c(Cl)cccc2Cl)c2nc(Cc3ccc(OCCN4CCOCC4)c(O)c3)[nH]c(=O)c12` had an IC50 of less than 100 nM.

In turn, `CC(C)N1CCN(CCOc2ccc(-c3n[nH]c4c3C(=O)c3c(NC(=O)NN5CCOCC5)cccc3-4)c(F)c2)CC1` registered a half-inhibitory concentration (IC50) of less than 100 nM. On to `O=C(Nc1cccc2c1C(=O)c1c-2n[nH]c1-c1ccc(OP(=O)(O)O)cc1)NN1CCOCC1`, for which the IC50 was less than 100 nM. With `CC(C)c1nn(-c2c(Cl)cccc2Cl)c2nc(Cc3ccc(CN4CCCC4)c(O)c3)[nH]c(=O)c12`, the half-maximal inhibitory concentration (IC50) was less than 100 nM.

Turning to `Cc1cc(OCCN2CCCC2)ccc1-c1[nH]nc2c1C(=O)c1c(NC(=O)NN3CCOCC3)cccc1-2`, the IC50 is less than 10 nM. With `CC(C)c1nn(-c2c(Cl)cc(Cl)cc2Cl)c2nc(Cc3ccc(OCC(C)(C)O)cc3)[nH]c(=O)c12` the figure was less than 100 nM; with `O=C(Nc1cccc2c1C(=O)c1c(-c3ccc(CNCCOCCO)cc3)n[nH]c1-2)NN1CCOCC1`, less than 100 nM; with `Cc1cc(OCCN2CCOCC2)ccc1-c1[nH]nc2c1C(=O)c1c(NC(=O)NN3CCN(C)CC3)cccc1-2`, less than 100 nM. The molecule `CC(C)c1nn(-c2c(Cl)cccc2Cl)c2nc(Cc3ccc(OCCOP(=O)(O)O)cc3)[nH]c(=O)c12` displayed an IC50 of less than 100 nM. Molecule `CC(C)c1nn(-c2c(Cl)cc(S(N)(=O)=O)cc2Cl)c2nc(Cc3ccc(OCCN4CCOCC4)cc3)[nH]c(=O)c12` displayed an IC50 of less than 10 nM. The value for `Cc1cc(OCCN2CCN(C(C)C)CC2)ccc1-c1[nH]nc2c1C(=O)c1c(NC(=O)NN3CCN(C)CC3)cccc1-2` was less than 100 nM; that for `O=C(Nc1cccc2c1C(=O)c1c-2n[nH]c1-c1ccc(OCC(=O)N2CCCC2)cc1)NN1CCOCC1` was less than 100 nM; that for `CC(C)c1nn(-c2c(Cl)cccc2Cl)c2nc(Cc3ccc(OCCN4CCOCC4)cc3)[nH]c(=O)c12` was less than 10 nM.

The molecule `CC(C)N1CCN(S(=O)(=O)c2ccc(-c3[nH]nc4c3C(=O)c3c(NC(=O)NN5CCOCC5)cccc3-4)cc2)CC1` had an IC50 of less than 10 nM. `CN1CCN(NC(=O)Nc2cccc3c2C(=O)c2c-3n[nH]c2-c2ccc(OCCN3CC[C@H](O)C3)cc2)CC1` registered an IC50 of less than 100 nM. In the case of `CC(C)OC(=O)CN1CCN(NC(=O)Nc2cccc3c2C(=O)c2c-3n[nH]c2-c2ccc(OCCN3CCCC3)cc2)CC1`, the concentration for half-maximal inhibition (IC50) was less than 100 nM. For `O=C(O)COc1ccc(-c2n[nH]c3c2C(=O)c2c(NC(=O)NN4CCOCC4)cccc2-3)cc1`, the IC50 is less than 10 nM. The value for `COc1ccc(Cc2nc3c(c(C(C)C)nn3-c3c(Cl)cccc3Cl)c(=O)[nH]2)cc1` was less than 10 nM. Consider `CN(C)C(=O)CN1CCN(NC(=O)Nc2cccc3c2C(=O)c2c-3n[nH]c2-c2ccc(OCCN3CCCC3)cc2)CC1`, for which the IC50 is less than 100 nM. The molecule `Cc1cc(-c2[nH]nc3c2C(=O)c2c(NC(=O)NN4CCOCC4)cccc2-3)ccc1OCCN1CCN(C(C)C)CC1` displayed an IC50 of less than 10 nM. The value for `CC(C)c1nn(-c2c(Cl)cc(Cl)cc2Cl)c2nc(Cc3ccc(OCCO)cc3)[nH]c(=O)c12` was less than 100 nM.

`CC(C)c1nn(-c2c(Cl)cccc2Cl)c2nc(Cc3ccc(CN4CCN(C(C)C)CC4)c(O)c3)[nH]c(=O)c12` showed an IC50 of less than 100 nM. Molecule `COc1cc(-c2[nH]nc3c2C(=O)c2c(NC(=O)NN4CCOCC4)cccc2-3)ccc1OCCN1CCCC1` showed an IC50 of less than 100 nM. `CC(C)c1nn(-c2c(Cl)cccc2Cl)c2nc(Cc3ccc(O)c(CN4CCOCC4)c3)[nH]c(=O)c12` yielded an IC50 of less than 100 nM. With `CCOC(=O)COc1ccc(-c2[nH]nc3c2C(=O)c2c(NC(=O)NN4CCOCC4)cccc2-3)cc1` the figure was less than 100 nM; with `CC(C)C(N)C(=O)OCCN1CCN(NC(=O)Nc2cccc3c2C(=O)c2c-3n[nH]c2-c2ccc(OCCN3CCCC3)cc2)CC1` (configuration not stated), less than 100 nM; with `O=C(Nc1cccc2c1C(=O)c1c(-c3ccc(CN(CCO)CCO)cc3)n[nH]c1-2)NN1CCOCC1`, less than 100 nM. `Cc1noc(COc2ccc(-c3[nH]nc4c3C(=O)c3c(NC(=O)NN5CCN(C)CC5)cccc3-4)cc2)n1` showed an IC50 of less than 100 nM. As for `CC(C)N1CCN(CCCOc2ccc(-c3[nH]nc4c3C(=O)c3c(NC(=O)NN5CCOCC5)cccc3-4)cc2)CC1`, the IC50 is less than 10 nM. Consider `Cc1cc(OCCCN2CCN(C(C)C)CC2)ccc1-c1[nH]nc2c1C(=O)c1c(NC(=O)NN3CCOCC3)cccc1-2`, for which the 50% inhibitory concentration (IC50) is less than 10 nM. Molecule `Cc1cc(-c2[nH]nc3c2C(=O)c2c(NC(=O)NN4CCN(C)CC4)cccc2-3)ccc1OCCN1CCCC1` showed a concentration for half-maximal inhibition (IC50) of less than 100 nM.

On to `CC(C)c1nn(-c2c(Cl)cc(Cl)cc2Cl)c2nc(Cc3ccc(NS(=O)(=O)CCCN4CCCC4)cc3)[nH]c(=O)c12`, for which the IC50 is less than 100 nM. As to `O=C(Nc1cccc2c1C(=O)c1c(-c3ccc(CNC(CO)CO)cc3)n[nH]c1-2)NN1CCOCC1`, the IC50 is less than 10 nM. `CC(C)c1nn(-c2c(Cl)cc(Cl)cc2Cl)c2nc(Cc3ccc(CNC(CO)CO)n3C)[nH]c(=O)c12` came in with an IC50 of less than 10 nM. The value for `CN1CCN(NC(=O)Nc2cccc3c2C(=O)c2c(-c4ccc(OCCN5CCCC5)cc4F)n[nH]c2-3)CC1` was less than 100 nM; that for `CCN1CCN(S(=O)(=O)c2cc(Cl)c(-n3nc(C(C)C)c4c(=O)[nH]c(Cc5ccc(OCCN6CCOCC6)cc5)nc43)c(Cl)c2)CC1` was less than 1000 nM.

`CC(C)c1nn(-c2c(Cl)cc(Cl)cc2Cl)c2nc(Cc3ccc(CN4CCN(C(C)C)CC4)n3C)[nH]c(=O)c12` returned an IC50 of less than 100 nM. Take `O=C(Nc1cccc2c1C(=O)c1c(-c3ccc(CN4CCC[C@H]4CO)cc3)n[nH]c1-2)NN1CCOCC1`: the IC50 is less than 100 nM. Consider `CC(C)N1CCN(C(=O)COc2ccc(-c3[nH]nc4c3C(=O)c3c(NC(=O)NN5CCOCC5)cccc3-4)cc2)CC1`, for which the IC50 is less than 100 nM. `O=C(Nc1cccc2c1C(=O)c1c(-c3ccc(CN4CCN(CCO)CC4)cc3)n[nH]c1-2)NN1CCOCC1` had an IC50 of less than 100 nM. `CC(C)c1nn(-c2c(Cl)cc(Cl)cc2Cl)c2nc(Cc3ccc(OCCN4CCN(C(C)C)CC4)cc3)[nH]c(=O)c12` yielded a half-maximal inhibitory concentration (IC50) of less than 10 nM. Molecule `CC(C)N1CCN(C(=O)COc2ccc(-c3n[nH]c4c3C(=O)c3c(NC(=O)NN5CCOCC5)cccc3-4)cc2)CC1` had an IC50 of less than 100 nM. In turn, `O=C(Nc1cccc2c1C(=O)c1c(-c3ccc(CN4CCN(c5ccccn5)CC4)cc3)n[nH]c1-2)NN1CCOCC1` returned an IC50 of less than 100 nM. `Cc1cc(OCCN2CCCCC2)ccc1-c1[nH]nc2c1C(=O)c1c(NC(=O)NN3CCN(C)CC3)cccc1-2` had a concentration for half-maximal inhibition (IC50) of less than 100 nM. `CC(C)c1nn(-c2c(Cl)cccc2Cl)c2nc(Cc3ccc(O)cc3)[nH]c(=O)c12` returned an IC50 of less than 10 nM. For the molecule `COCCOc1ccc(Cc2nc3c(c(C(C)C)nn3-c3c(Cl)cccc3Cl)c(=O)[nH]2)cc1`, the IC50 is less than 100 nM.

For `CN1CCN(NC(=O)Nc2cccc3c2C(=O)c2c-3n[nH]c2-c2ccc(OCC(=O)N3CCCC3)cc2)CC1`, the half-maximal inhibitory concentration (IC50) was less than 100 nM.

These data come from the Kinase Knowledgebase extract (Sharma et al. 2016).
